The values below come from patent publication US12497365B2, “4-pyridinyl formamide compound or derivative thereof, preparation method therefor, herbicidal composition and use thereof” (Qingdao Kingagroot Chemical Compound Co., Ltd., priority 2019, dated 2025).

What all share (assay): Weeding effect in post-emergence stage
What all share (format): in vivo
Common to all, as to settings: active ingredient 2000 g/ha, 3 weeks after application, fresh weight control rate

For assay [1], the system named is Abutilon theophrasti. Summed up: (§1)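 Read-out is growth control rate based on fresh weight, assessed 3 weeks after treatment in the greenhouse. Plants were sprayed at the 2-3 leaf stage with compound dissolved in acetone, plus Tween 80 and methyl oleate emulsifiable concentrate, at doses from 125 to 2000 g/ha.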
Assay [2] relates to Amaranthus retroflexus L. Summed up: as §1
The subject of assay [3] is Chenopodium album. Summed up: as §1
The test system of assay [4] is Descurainia sophia. Summed up: as §1

Regarding `Cn1nnnc1NC(=O)c1ccnc(-c2cccc(F)c2F)c1Cl` [Compound 1-62], in assay [1], the “Weeding effect, activity level (growth control rate), Abutilon theophrasti” value (shortened to “Weeding effect … Abutilon theophrasti”) is listed as 5 (Level 5: growth control rate is above 85%). The “Weeding effect, activity level (growth control rate), Amaranthus retroflexus L.” value (shortened to “Weeding effect … Amaranthus retroflexus L.”) in assay [2] is reported as 5 (Level 5: growth control rate is above 85%). Moreover, in assay [3], the “Weeding effect, activity level (growth control rate), Chenopodium album” value (“Weeding effect … Chenopodium album” below) was 5 (Level 5: growth control rate is above 85%). Besides, the “Weeding effect, activity level (growth control rate), Descurainia sophia” value (from here on “Weeding effect … Descurainia sophia”) in assay [4] was 5 (Level 5: growth control rate is above 85%).

On to `Cn1nnnc1NC(=O)c1ccnc(-c2ccc(F)c(C(F)(F)F)c2)c1Cl` [Compound 1-85], for which the “Weeding effect … Abutilon theophrasti” value in assay [1] was 5 (Level 5: growth control rate is above 85%). Moreover, the “Weeding effect … Amaranthus retroflexus L.” value in assay [2] is 5 (Level 5: growth control rate is above 85%). In assay [3], the “Weeding effect … Chenopodium album” value is 5 (Level 5: growth control rate is above 85%). In assay [4], the “Weeding effect … Descurainia sophia” value was 5 (Level 5: growth control rate is above 85%).

Turning to `Cn1nnnc1NC(=O)c1ccnc(-c2ccc(C#N)nc2)c1Cl` [Compound 1-134], the “Weeding effect … Abutilon theophrasti” value in assay [1] was 5 (Level 5: growth control rate is above 85%). Further, in assay [2], the “Weeding effect … Amaranthus retroflexus L.” value is on record as 5 (Level 5: growth control rate is above 85%). Moreover, the “Weeding effect … Chenopodium album” value in assay [3] is listed as 5 (Level 5: growth control rate is above 85%). Moreover, the “Weeding effect … Descurainia sophia” value in assay [4] was 5 (Level 5: growth control rate is above 85%).

Regarding `Cc1cccc(-c2nccc(C(=O)Nc3nnnn3C)c2Cl)c1` [Compound 1-10], the “Weeding effect … Abutilon theophrasti” value in assay [1] is listed as 5 (Level 5: growth control rate is above 85%). In addition, the “Weeding effect … Amaranthus retroflexus L.” value in assay [2] is 5 (Level 5: growth control rate is above 85%). In addition, the “Weeding effect … Chenopodium album” value in assay [3] is given as 5 (Level 5: growth control rate is above 85%). Besides, the “Weeding effect … Descurainia sophia” value in assay [4] was 5 (Level 5: growth control rate is above 85%).

`COc1ccc(-c2nccc(C(=O)Nc3nnnn3C)c2Cl)cc1` [Compound 1-30]: in assay [1], the “Weeding effect … Abutilon theophrasti” value is recorded as 5 (Level 5: growth control rate is above 85%). The “Weeding effect … Amaranthus retroflexus L.” value in assay [2] is listed as 5 (Level 5: growth control rate is above 85%). Moreover, the “Weeding effect … Chenopodium album” value in assay [3] is recorded as 5 (Level 5: growth control rate is above 85%). In addition, in assay [4], the “Weeding effect … Descurainia sophia” value is given as 5 (Level 5: growth control rate is above 85%).

For the molecule `Cn1nnnc1NC(=O)c1ccnc(-c2ccc(Cl)cc2)c1Cl` [Compound 1-20], the “Weeding effect … Abutilon theophrasti” value in assay [1] is recorded as 5 (Level 5: growth control rate is above 85%). In assay [2], the “Weeding effect … Amaranthus retroflexus L.” value is on record as 5 (Level 5: growth control rate is above 85%). For the same molecule, the “Weeding effect … Chenopodium album” value in assay [3] is 5 (Level 5: growth control rate is above 85%). Moreover, the “Weeding effect … Descurainia sophia” value in assay [4] is recorded as 5 (Level 5: growth control rate is above 85%).

As to `COc1nccc(C(=O)Nc2nnnn2C)c1Cl` [Compound 1-2061], in assay [1], the “Weeding effect … Abutilon theophrasti” value was 5 (Level 5: growth control rate is above 85%). In addition, the “Weeding effect … Amaranthus retroflexus L.” value in assay [2] is 5 (Level 5: growth control rate is above 85%). The “Weeding effect … Chenopodium album” value in assay [3] is 5 (Level 5: growth control rate is above 85%). The “Weeding effect … Descurainia sophia” value in assay [4] is listed as 5 (Level 5: growth control rate is above 85%).

Consider `CSc1c(C(=O)Nc2nnnn2C)ccnc1-c1ccc(C(N)=O)cc1` [Compound 1-2053], for which the “Weeding effect … Abutilon theophrasti” value in assay [1] is given as 5 (Level 5: growth control rate is above 85%). Besides, in assay [2], the “Weeding effect … Amaranthus retroflexus L.” value is reported as 5 (Level 5: growth control rate is above 85%). Also, the “Weeding effect … Chenopodium album” value in assay [3] was 5 (Level 5: growth control rate is above 85%). In addition, the “Weeding effect … Descurainia sophia” value in assay [4] is on record as 5 (Level 5: growth control rate is above 85%).
